Measurements reported in PubChem BioAssay AID179 (DTP/NCI, 2004).
Active and inactive are the calls of the source.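 Rule for the calls: active = compounds giving half or more protection of infected cells from virus-caused growth loss, again on retest; inactive = the rest.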 Where a SMILES comes first, the peptide text is derived from it. [ ]: non-standard residue; d: D form. The star is where a group is joined. NMeAc5c = CNC1(C(=O)O)CCCC1; Boc = CC(C)(C)OC(=O)*; OBn = c1ccc(CO*)cc1

Test system: CEM cells HIV-1 protection, formazan growth assay
Test: NCI AIDS Antiviral Assay
Conditions: for IC50: measured here: growth of uninfected CEM cells
Summary of the method: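 Human CEM cells, uninfected and HIV-1-infected, received five drug concentrations, and growth was read by soluble formazan assay. Compounds giving at least 50% protection were retested; reproducible 100% protection defined confirmed active.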

With Cc1c(C(=O)C/C(=N/NC(=O)c2ccccc2)C(=O)Nc2ccc(Cl)cc2)[n+](=O)c2ccccc2n1[O-] the EC50 was > 34.7 µM and the IC50 was 20.4 µM.
For COC(=O)c1cc(C(CCl)c2cc(C(=O)OC)c(O)cc2C)c(C)cc1O, the EC50 was > 200 µM and the IC50 was 112 µM.
CC1=C(C(=O)O)CCC2(C)c3ccc(C(C)C)c(O)c3CCC12 (stereo not given) was tested, and the EC50 was > 200 µM and the IC50 was 46.8 µM.
In the case of S=c1sc2c(s1)SCCCCSCCCCSc1sc(=S)sc1SCCCCSCCCCS2, the EC50 is reported as > 200 µM and the IC50 is reported as > 200 µM.
With CC(=O)/C(=C/c1ccc(Cl)cc1)C(=O)c1ccccc1 the EC50 was > 66.1 µM and the IC50 was 11.7 µM.
CC[C@]12C=CCN3CCC4(c5cc([C@]6(C(=O)OC)C[C@H]7CN(CCc8c6[nH]c6ccccc86)C[C@@H]6CCCC[C@H]76)c(OC)cc5N(C)C4[C@@](O)(C(=O)OC)C1OC(C)=O)[C@@H]32 (stereo not given in full) was tested, and the EC50 was > 240 µM and the IC50 was 1.32 µM.
In the case of O=C1Cc2cc3ccccc3nc2-c2ccccc2N1, the EC50 is reported as > 200 µM and the IC50 is reported as > 200 µM.
O=C1CCC(=O)c2sccc2N1 was tested, and the EC50 was > 1380 µM and the IC50 was > 1380 µM.
In the case of Nc1nc(NC2CC2)c2ncn(C3C=CC(CO)CC3)c2n1 (stereo not given), the EC50 is reported as > 200 µM and the IC50 is reported as > 200 µM.
In the case of CCOC(=O)c1cn(C)c(=S)n2c1nc1ccccc12, the EC50 is reported as > 200 µM and the IC50 is reported as > 200 µM.
CCOC(=O)/C(=C\c1ccc(O)c(OC)c1)C(=O)c1ccccc1 was tested, and the EC50 was > 288 µM and the IC50 was 41.7 µM.
In the case of S=c1[nH]nc(Cn2c3ccc(Br)cc3c3nc4ccccc4nc32)o1, the EC50 is reported as > 200 µM and the IC50 is reported as 49 µM.
With CN1CCC2(CC1)C(=NC1CCCCC1)NC(=S)N2c1ccccc1 the EC50 was > 100 µM and the IC50 was > 100 µM.
COc1cc2c(c(O)c1OC)C(=O)[C@@H]1CCC(=O)N1C2 was tested, and the EC50 was > 123 µM and the IC50 was 112 µM.
In the case of CC(=O)N/C(=C\c1ccc(/C=C(\NC(C)=O)C2=NC3C(=O)c4ccccc4C(=O)C3N2)cc1)C1=NC2C(=O)c3ccccc3C(=O)C2N1 (stereo not given), the outcome is reported as “inactive”.
O=C(O)C1Cc2c([nH]c3ccccc23)C(C2CCNC2=S)N1 (stereo not given) was tested, and the outcome was “inactive”.
In the case of COC(=O)/C=C/c1ccc2c(c1)CC1(Cc3ccccc3C1)C2, the EC50 is reported as > 200 µM and the IC50 is reported as > 200 µM.
C[N+](C)(C)CCC[N+](C)(C)CCN1C(=O)c2cccc3cccc(c23)C1=O was tested, and the EC50 was > 200 µM and the IC50 was > 200 µM.
In the case of O=C1CCCC(=O)N1n1c(Cc2ccccc2)n[nH]c1=O, the EC50 is reported as > 200 µM and the IC50 is reported as > 200 µM.
With O=C1NC(=O)C(=Cn2c(=S)sc3ccccc32)C(=O)N1 the EC50 was > 200 µM and the IC50 was > 200 µM.
With O=C1C=CC(=O)c2c1ccc1c3ccccc3n(-c3ccccc3)c21 the EC50 was > 22.4 µM and the IC50 was 1.07 µM.
Cn1c(N)c(C(N)=O)[nH]c1=S was tested, and the EC50 was > 200 µM and the IC50 was > 200 µM.
In the case of Oc1cccc2cc(Cl)cnc12, the EC50 is reported as > 20 µM and the IC50 is reported as 8.32 µM.
With C[N+](C)(C)CC1CCCC(C[N+](C)(C)C)C1=NO (stereo not given) the outcome was “inactive”.
COc1cccc(NC(=O)/C(CS(=O)(=O)CCC(C(C)=O)C(C)=O)=N\NC(C)(C)C)c1 was tested, and the EC50 was 25.7 µM and the IC50 was 550 µM.
In the case of CCNc1ncnc2sc(SCc3ccccc3)nc12, the EC50 is reported as > 200 µM and the IC50 is reported as > 200 µM.
With C=CC(C)(C)N1c2ccccc2[C@]2(O)C[C@@H]3C(=O)N4/C=C\C(C)(C)c5[nH]c6ccccc6c5/C=C\4C(=O)N3[C@H]12 the outcome was “inactive”.
Nc1cc(C(=O)NC2C3CC4CC(C3)CC2C4)[nH]c(=S)n1 (stereo not given) was tested, and the EC50 was > 813 µM and the IC50 was > 813 µM.
O=C(N/N=C/c1ccc(Cl)cc1Cl)c1ccccc1SSc1ccccc1C(=O)N/N=C/c1ccc(Cl)cc1Cl was tested, and the EC50 was 38.9 µM and the IC50 was 178 µM.
For OC1CC[C@H](Cl)C2=C1[C@@]13C[C@]14OCCC3OC2[C@@H]4Cl (stereo not given in full), the EC50 was > 427 µM and the IC50 was > 427 µM.
In the case of COc1cccc(C=C2C(=O)c3ccccc3C2=O)c1, the outcome is reported as “inactive”.
For CC(=O)NC1C(=O)N(Cc2ccccc2)[C@@H]1COC(C)(C)C (stereo not given in full), the EC50 was > 813 µM and the IC50 was > 813 µM.
For NC(N)=NS(=O)(=O)c1ccc(NNc2c3ccccc3nc3ccccc23)cc1, the EC50 was > 200 µM and the IC50 was 1.07 µM.
For COc1ccc(-n2sc3ncc([N+](=O)[O-])cc3c2=O)cc1, the EC50 was 9.33 µM and the IC50 was > 200 µM.
C[C@]12CCC(=O)C[C@H]1CCC(O)[C@@H]2Br (stereo not given in full) was tested, and the outcome was “inactive”.
Cn1/c(=N\N=C2\C=C3CCCCC3(C)CC2)sc2ccccc21 (stereo not given) was tested, and the EC50 was > 200 µM and the IC50 was 155 µM.
For O=[N+]([O-])c1ccc2[nH]c(=S)n(/C=C(/c3ccccc3)S(=O)Cc3ccccc3)c2c1 (stereo not given), the EC50 was > 200 µM and the IC50 was > 200 µM.
In the case of CCOC(=O)c1cc(Br)c(-c2cc(C)no2)[nH]1, the EC50 is reported as > 200 µM and the IC50 is reported as 1.48 µM.
With CCOc1ccc(N2CC(=O)N3CCCN3C(=O)C2)cc1 the EC50 was > 123 µM and the IC50 was > 123 µM.
In the case of COc1cc(C[P+](c2ccccc2)(c2ccccc2)c2ccccc2)cc(OC)c1OC, the EC50 is reported as > 479 µM and the IC50 is reported as 33.1 µM.
For N=C(N)SCc1cn2ccccc2n1, the EC50 was > 891 µM and the IC50 was 50.1 µM.
With COCc1cc2c(cc1/C(=C/[N+](=O)[O-])CS(=O)(=O)c1ccccc1)OCO2 the EC50 was > 200 µM and the IC50 was 102 µM.
With CSCC(COC(C)=O)(CSC)c1ccncc1 the EC50 was > 871 µM and the IC50 was 501 µM.
Cn1cnc(N2CCCC2)c(C#N)c1=O was tested, and the EC50 was > 200 µM and the IC50 was > 200 µM.
CCOC(=O)C(=O)/C(=C/n1c(=S)[nH]c2cc(C)ccc21)C(=O)OCC was tested, and the EC50 was > 200 µM and the IC50 was > 200 µM.
In the case of C/C(=N\NC(=O)c1ccncc1)c1sc(-n2nc(-c3ccccc3)cc2-c2ccccc2)nc1C, the EC50 is reported as > 11 µM and the IC50 is reported as > 11 µM.
CC(C)(C)[Si](C)(C)OCCCCC1CC2(S(=O)(=O)C3=CC=C=C=C3)ON1CC2S(=O)(=O)c1ccccc1 (stereo not given) was tested, and the EC50 was > 45.7 µM and the IC50 was > 45.7 µM.
S=c1nc(N2CCCCC2)ss1 was tested, and the outcome was “inactive”.
In the case of CC1CCCC(C)[N+]1=C(Nc1cccc(Cl)c1)c1ccccc1 (stereo not given), the EC50 is reported as > 200 µM and the IC50 is reported as 105 µM.
CN(C(=O)C(Cc1ccccc1)NC(=O)OC(C)(C)C)C1(C(=O)NC(Cc2ccccc2)C(=O)OCc2ccccc2)CCCC1 (stereo not drawn) (Boc-Phe-[NMeAc5c]-Phe-OBn; configuration not given here) was tested, and the EC50 was > 200 µM and the IC50 was 11 µM.
For CCOC(=O)c1c(SCC#N)n(-c2ccccc2)c(=S)n(-c2ccccc2)c1=O, the EC50 was > 200 µM and the IC50 was 13.8 µM.
In the case of Cc1ccc(Oc2ccc(C(=O)c3cccc(C(=O)c4ccc(Oc5ccc(C)cc5)cc4)n3)cc2)cc1, the EC50 is reported as > 3.8 µM and the IC50 is reported as > 3.8 µM.
With Clc1ccc(CNc2nc3ccccc3nc2-c2cccs2)c(Cl)c1 the EC50 was > 9.77 µM and the IC50 was > 9.77 µM.
For O=S(=O)(c1ccccc1)C(CN1CCCCC1)S(=O)(=O)c1ccccc1, the outcome was “inactive”.
In the case of COC(=O)N1CC[C@@H]2CCC=C(c3cccc4c3OCO4)[C@@H]21, the outcome is reported as “inactive”.
CCc1ccccc1N1C(=O)C(=O)C(c2nc3ccccc3s2)C(=O)C1=O was tested, and the EC50 was > 178 µM and the IC50 was 93.3 µM.
For N=c1c2ccccc2c2ccccc2n1O, the EC50 was > 200 µM and the IC50 was > 100 µM.
For NC(CCCCP(=O)(O)O)C(=O)O (stereo not given), the EC50 was > 200 µM and the IC50 was > 200 µM.
For CC1=CC(C)(C)SC(SSSSC2=NC(C)=CC(C)(C)S2)=N1, the EC50 was > 200 µM and the IC50 was 29.5 µM.
In the case of CC(C)OP(=O)(OC(C)C)/C(Cl)=N/Nc1ccc([N+](=O)[O-])cc1, the EC50 is reported as > 70.8 µM and the IC50 is reported as > 70.8 µM.
With O=c1[nH]ccc(CNC23CC4CC(CC(C4)C2)C3)c1O the EC50 was > 45.7 µM and the IC50 was > 45.7 µM.
C[C@@H](CC(=O)O)OC1OC(COC(=O)C(C)(C)C)C(OC(=O)C(C)(C)C)C(OC(=O)C(C)(C)C)C1OC(=O)C(C)(C)C (stereo not given in full) was tested, and the EC50 was > 200 µM and the IC50 was 27.5 µM.
